Where a name gives a salt, the structure may show the parent alone.
SMILES | flash point
CN(C)C#N [dimethylcyanamide] | 71.00 °C
C=C/C=C/C [(3E)-penta-1,3-diene] | -29.00 °C
CC(C)Nc1ccc(Nc2ccccc2)cc1 [1-N-phenyl-4-N-propan-2-ylbenzene-1,4-diamine] | 151.00 °C
CC(=O)CC(C)C [4-methylpentan-2-one] | 23.00 °C
c1cc(OCC2CO2)cc(OCC2CO2)c1 (stereo not drawn) [2-[[3-(oxiran-2-ylmethoxy)phenoxy]methyl]oxirane] | 177.00 °C
O=[N+]([O-])C(Br)(CO)CO [2-bromo-2-nitropropane-1,3-diol] | 167.00 °C
C=C1CC(=O)O1 [4-methylideneoxetan-2-one] | 34.00 °C
Cc1ccc(N)cc1[N+](=O)[O-] [4-methyl-3-nitroaniline] | 157.00 °C
CCCCSP(SCCCC)SCCCC [tris(butylsulfanyl)phosphane] | 146.00 °C
C=C(C)C(=O)OCCCC [butyl 2-methylprop-2-enoate] | 52.00 °C
CCSCc1ccccc1OC(=O)NC [[2-(ethylsulfanylmethyl)phenyl] N-methylcarbamate] | 123.00 °C
CCO[Si](OCC)(OCC)OCC [tetraethyl silicate] | 37.00 °C
Nc1ccc(Cl)c(Cl)c1 [3,4-dichloroaniline] | 166.00 °C
CCCSSCCC [1-(propyldisulfanyl)propane] | 66.00 °C
OCCCO [propane-1,3-diol] | 174.00 °C
Nc1ccccc1Cl [2-chloroaniline] | 98.00 °C
CC(Br)c1ccccc1 (stereo not drawn) [1-bromoethylbenzene] | 96.00 °C
CCCCC(CC)COC(=O)c1ccccc1C(=O)OCC(CC)CCCC (stereo not drawn) [bis(2-ethylhexyl) benzene-1,2-dicarboxylate] | 207.00 °C
c1ccc2cc3ccccc3cc2c1 [anthracene] | 121.00 °C
CC(C)(Cl)[N+](=O)[O-] [2-chloro-2-nitropropane] | 57.00 °C
CNC(C)Cc1ccccc1 (stereo not drawn) [N-methyl-1-phenylpropan-2-amine] | 9.00 °C
O=C(O)c1ccccc1C(=O)O [phthalic acid] | 168.00 °C
CC(C)(C)OO [2-hydroperoxy-2-methylpropane] | 27.00 °C
C=CCN(CC=C)CC=C [N,N-bis(prop-2-enyl)prop-2-en-1-amine] | 39.00 °C
CCCCCNCCCCC [N-pentylpentan-1-amine] | 51.00 °C
CC(=O)OCC(C)OC(C)=O (stereo not drawn) [2-acetyloxypropyl acetate] | 86.00 °C

SMILES | flash point
CCCCOCC(C)O (stereo not drawn) [1-butoxypropan-2-ol] | 63.00 °C
Cc1ccc(N)c(C)c1 [2,4-dimethylaniline] | 96.00 °C
CC(O)CCl (stereo not drawn) [1-chloropropan-2-ol] | 52.00 °C
CCNC1CCCCC1 [N-ethylcyclohexanamine] | 29.00 °C
C=CC(=O)OC(C)(C)C [tert-butyl prop-2-enoate] | 19.00 °C
Cc1cccc(C)c1 [1,3-xylene] | 29.00 °C
CCCCOCCOP(=O)(OCCOCCCC)OCCOCCCC [tris(2-butoxyethyl) phosphate] | 224.00 °C
CSSC [(methyldisulfanyl)methane] | 24.00 °C
O=C(OC1CCCCC1)c1ccccc1C(=O)OC1CCCCC1 [dicyclohexyl benzene-1,2-dicarboxylate] | 207.00 °C
Cc1ccccc1CBr [1-(bromomethyl)-2-methylbenzene] | 82.00 °C
CCOC(=O)CBr [ethyl 2-bromoacetate] | 48.00 °C
Cc1ccc([N+](=O)[O-])cc1.N.Nc1cccc([N+](=O)[O-])c1.Nc1ccccc1[N+](=O)[O-] [azane;1-methyl-4-nitrobenzene;2-nitroaniline;3-nitroaniline] | 154.00 °C
Oc1ccc(Br)cc1Br [2,4-dibromophenol] | 113.00 °C
COC=O [methyl formate] | -32.00 °C
CCCCN=C=O [1-isocyanatobutane] | 19.00 °C
FC(F)=C(F)Cl [1-chloro-1,2,2-trifluoroethene] | -27.00 °C
N#CC(Cl)(Cl)Cl [2,2,2-trichloroacetonitrile] | 74.00 °C
Cc1cccc([N+](=O)[O-])c1C [1,2-dimethyl-3-nitrobenzene] | 107.00 °C
CN(C)c1ccc(N)cc1 [4-N,4-N-dimethylbenzene-1,4-diamine] | 91.00 °C
Clc1cc(Cl)c(Cl)cc1Cl [1,2,4,5-tetrachlorobenzene] | 155.00 °C
Brc1ccccc1 [bromobenzene] | 51.00 °C
CC(C)CCCCCOP(=S)([S-])OCCCCCC(C)C.CC(C)CCCCCOP(=S)([S-])OCCCCCC(C)C.[Zn+2] | 160.00 °C
CO [methanol] | 11.00 °C
c1ccc2c(c1)-c1cccc3cccc-2c13 [fluoranthene] | 198.00 °C
C=CC1CC=CCC1 (stereo not drawn) [4-ethenylcyclohexene] | 16.00 °C
Cc1cnc[nH]1 [5-methyl-1H-imidazole] | 157.00 °C

Next, values leading:

flash point | SMILES
130.00 °C | Cc1ccc2oc(=O)ccc2c1 [6-methylchromen-2-one]
118.00 °C | CC(=O)C=CC1C(C)=CCCC1(C)C (stereo not drawn) [4-(2,6,6-trimethylcyclohex-2-en-1-yl)but-3-en-2-one]
101.00 °C | O=[N+]([O-])c1cccc(C(F)(F)F)c1 [1-nitro-3-(trifluoromethyl)benzene]
193.00 °C | CN(C)CCCC1(c2ccccc2)C(=O)N(N(C)Cc2ccccc2F)c2ccccc21 (stereo not drawn)
110.00 °C | CC1(C)CC(N)CC(C)(CN)C1 (stereo not drawn) [3-(aminomethyl)-3,5,5-trimethylcyclohexan-1-amine]
141.00 °C | Clc1cccc(-c2cc(Cl)cc(Cl)c2)c1 [1,3-dichloro-5-(3-chlorophenyl)benzene]
35.00 °C | CCC1CCCCC1 [ethylcyclohexane]
9.00 °C | C=CCCCCC=C [octa-1,7-diene]
157.00 °C | O=C1OC(=O)C2CC=CCC12 (stereo not drawn) [3a,4,7,7a-tetrahydro-2-benzofuran-1,3-dione]
25.00 °C | CCOC(=O)OCC [diethyl carbonate]
57.00 °C | CN(C)Cc1ccccc1 [N,N-dimethyl-1-phenylmethanamine]
26.00 °C | CC=CCCCCCC [non-2-ene]
127.00 °C | CC(CO)CO [2-methylpropane-1,3-diol]
68.00 °C | CCCCCCCOC(C)=O [heptyl acetate]
58.00 °C | CC(=O)OC1CCCCC1 [cyclohexyl acetate]
78.00 °C | O=Cc1ccccc1O [2-hydroxybenzaldehyde]
-21.00 °C | C1=CC2C=CC1C2 [bicyclo[2.2.1]hepta-2,5-diene]
51.00 °C | CC(C)CN(CC(C)C)CC(C)C [2-methyl-N,N-bis(2-methylpropyl)propan-1-amine]
171.00 °C | c1ccc2c(c1)ccc1ccccc12 [phenanthrene]
4.00 °C | [C-]1=CC=CC1.[C-]1=CC=CC1.[Ni+2] [cyclopenta-1,3-diene;nickel(2+)]
59.00 °C | CC1CCCCC1O (stereo not drawn) [2-methylcyclohexan-1-ol]
6.00 °C | C1CCCCCC1 [cycloheptane]
60.00 °C | CC(C)CC(=O)CC(C)C [2,6-dimethylheptan-4-one]

flash point | SMILES
172.00 °C | CCC(CO)(CO)CO [2-ethyl-2-(hydroxymethyl)propane-1,3-diol]
79.00 °C | C=C(C#N)C(=O)OC [methyl 2-cyanoprop-2-enoate]
85.00 °C | CC(O)C(C)O (stereo not drawn) [butane-2,3-diol]
-46.00 °C | C=CC1CO1 (stereo not drawn) [2-ethenyloxirane]
22.00 °C | CC[Si](Cl)(Cl)Cl [trichloro(ethyl)silane]
141.00 °C | CCCCCCOCCOCCO [2-(2-hexoxyethoxy)ethanol]
185.00 °C | CCCCC(CC)COC(=O)/C=C\C(=O)OCC(CC)CCCC (stereo not drawn) [bis(2-ethylhexyl) (Z)-but-2-enedioate]
63.00 °C | CCOc1ccccc1 [ethoxybenzene]
102.00 °C | CCCCCCCC(=O)Oc1c(Br)cc(C#N)cc1Br [(2,6-dibromo-4-cyanophenyl) octanoate]
-28.00 °C | C1COC1 [oxetane]
-20.00 °C | C1CCOCC1 [oxane]
33.00 °C | CC(C)OCCO [2-propan-2-yloxyethanol]
7.00 °C | C=C(Cl)C#N [2-chloroprop-2-enenitrile]
67.00 °C | Cc1ccccc1C=O [2-methylbenzaldehyde]
67.00 °C | ClC(Cl)(Cl)C1CO1 (stereo not drawn) [2-(trichloromethyl)oxirane]
250.00 °C | C1N2CN3CN1CN(C2)C3 [1,3,5,7-tetrazatricyclo[3.3.1.13,7]decane]
41.00 °C | CC(=O)C(C)O (stereo not drawn) [3-hydroxybutan-2-one]
99.00 °C | CC(=O)OCN=[N+](C)[O-] [acetyloxymethylimino-methyl-oxidoazanium]
83.00 °C | Cc1ccccc1N(C)C [N,N,2-trimethylaniline]
53.00 °C | CCCCOC(=O)CCC [butyl butanoate]
141.00 °C | CCC(C)Nc1ccc(NC(C)CC)cc1 (stereo not drawn) [1-N,4-N-di(butan-2-yl)benzene-1,4-diamine]
166.00 °C | OCC1CCC(CO)CC1.OCC1CCC(CO)CC1 (stereo not drawn) [[4-(hydroxymethyl)cyclohexyl]methanol]
64.00 °C | C(OCC1CO1)C1CO1 (stereo not drawn) [2-(oxiran-2-ylmethoxymethyl)oxirane]

From a flash point compilation (Sun et al. 2020)
